# Data taken from patent US11878967B2, “Crystalline forms of 1-(4-{[6-amino-5-(4-phenoxy-phenyl)-pyrimidin-4-ylamino]-methyl}-4-fluoro-piperidin-1-yl)-propenone, salt forms thereof, and processes to obtain” (Merck Patent GmbH, priority 2018, dated 2024).
# Where a name gives a salt, the structure may show the parent alone. Read-outs that look alike come from different tables or passages of the source.
# Legend:
# Type in all cases: physicochemical
# [1] = Water Vapour Sorption isotherm (25° C.), DVS system from SMS
# Method: DSC scan of form A1 was acquired on a Mettler-Toledo DSC 1 with a heating rate of 5 K/min, using nitrogen purge gas at 50 mL/min. TGA scan of form A1 was acquired on a Mettler-Toledo TGA 851 with a heating rate of 5 K/min, using nitrogen purge gas at 50 mL/min. […] Eur. Criteria (section 5.11.). Water Vapour Sorption isotherm was acquired on a DVS-Intrinsic system from SMS. […] Dissolution level of form A1 in Fasted-State Simulated Intestinal Fluid [FaSSIF, pH 6.5] at 37° C. was determined to be approx. 17 μg/mL after 2 h (see example 7). […]
# All forms were characterized according to standard methods which are found in e.g. Rolf Hilfiker, ‘Polymorphism in the Pharmaceutical Industry’, Wiley-VCH. Weinheim 2006 (Chapter 6: X-Ray Diffraction, Chapter 6: Vibrational Spectroscopy, Chapter 3: Thermal Analysis, Chapter 9: Water Vapour Sorption, and references therein); and H. G. Brittain, ‘Polymorphism in Pharmaceutical Solids, Vol. 95, Marcel Dekker Inc., New York 1999 (Chapter 6 and references therein).
# [2] = Mini-dissolution in FaSSIF medium pH 6.5 at 37° C.; conditions: for Dissolution levels in FaSSIF pH 6.5: 37° C.; for Dissolution level (2 h) in FaSSIF, factor higher than A1: compared to crystalline neat form A1
# Method: Approximately 10-20 mg of 1-(4-{[6-Amino-5-(4-phenoxy-phenyl)-pyrimidin-4-ylamino]-methyl}-4-fluoro-piperidin-1-yl)-propenone were weighed into glass vials. 7 mL of FaSSIF medium (pH 6.5, prewarmed to 37° C.) were added and the suspension was shaken at 450 rpm at 37° C. After 30 min, 60 min and 120 min, 1 mL suspension was withdrawn and filtered through a 0.2 μm syringe filter. Clear filtrate was analysed by HPLC after suitable dilution to measure the amount of API dissolved.
# [3] = Thermodynamic solubility (24 h) at 37° C. of free base forms; conditions: for solubility thermodynamic at 24 h: 37 °C, thermodynamic from solid
# Method: Approximately 10-20 mg of 1-(4-{[6-Amino-5-(4-phenoxy-phenyl)-pyrimidin-4-ylamino]-methyl}-4-fluoro-piperidin-1-yl)-propenone were weighed into a 4 mL glass vial. 1 mL of FaSSIF medium (pH 6.5) or USP Phosphate buffer pH 7.4 was added and the suspension was shaken for 24 h at 450 rpm at 37° C. After 1 h, 6 h and after 24 h the vials were checked for presence of undissolved compound and the pH was measured. If necessary, the pH was adjusted after 1 h and 6 h. The solid liquid separation was carried out using 1 mL syringe and 0.2 μm syringe filter. Clear filtrate was analysed by HPLC after suitable dilution to measure the amount of API dissolved.
# [4] = relative humidity range 0-80% rh
# [5] = relative humidity range 90-98% rh
structure (smiles),measurement,setting,value
"C=CC(=O)N1CCC(F)(CNc2ncnc(N)c2-c2ccc(Oc3ccccc3)cc2)CC1 [Maleate-NF1, 1-(4-{[6-Amino-5-(4-phenoxy-phenyl)-pyrimidin-4-ylamino]-methyl}-4-fluoro-piperidin-1-yl)-propenone]",Hygroscopicity classification acc. to Ph. Eur. criteria (section 5.11.),[1],slightly hygroscopic
same,Water uptake levels,[1]; [4],≤ 1 % m/m
same,Water uptake levels,[1]; [5],≤ 5 % m/m
"C=CC(=O)N1CCC(F)(CNc2ncnc(N)c2-c2ccc(Oc3ccccc3)cc2)CC1 [HBr-NF1, 1-(4-{[6-Amino-5-(4-phenoxy-phenyl)-pyrimidin-4-ylamino]-methyl}-4-fluoro-piperidin-1-yl)-propenone]",Dissolution levels in FaSSIF pH 6.5,[2]; 30 min,23 μg/mL
same,Dissolution levels in FaSSIF pH 6.5,[2]; 60 min,27 μg/mL
same,"Dissolution level (2 h) in FaSSIF, factor higher than A1",[2],~3
same,Hygroscopicity classification acc. to Ph. Eur. criteria (section 5.11.),[1],slightly hygroscopic
same,Water uptake levels,[1]; [4],≤ 1 % m/m
same,Water uptake levels,[1]; [5],≤ 5 % m/m
"C=CC(=O)N1CCC(F)(CNc2ncnc(N)c2-c2ccc(Oc3ccccc3)cc2)CC1 [Free base form A2, 1-(4-{[6-Amino-5-(4-phenoxy-phenyl)-pyrimidin-4-ylamino]-methyl}-4-fluoro-piperidin-1-yl)-propenone]",Dissolution levels in FaSSIF pH 6.5,[2]; 30 min,7 μg/mL
same,Dissolution levels in FaSSIF pH 6.5,[2]; 60 min,8 μg/mL
same,Dissolution levels in FaSSIF pH 6.5,[2]; 120 min (2 h),8 μg/mL
same,Dissolution levels in FaSSIF pH 6.5,"[2]; 120 min (2 h), listed as form A2",approx. 8 μg/mL
same,Thermodynamic solubility FaSSIF pH 6.5,[3]; Fasted-State Simulated Intestinal Fluid pH 6.5,10 μg/mL
same,Thermodynamic solubility FaSSIF pH 6.5,"[3]; Fasted-State Simulated Intestinal Fluid pH 6.5, listed as form A2",approx. 10 μg/mL
same,Thermodynamic solubility PBS buffer 7.4,[3]; USP Phosphate buffer pH 7.4,2 µg/mL
same,Thermodynamic solubility PBS buffer 7.4,"[3]; USP Phosphate buffer pH 7.4, listed as form A2",approx. 2 μg/mL
same,Hygroscopicity classification acc. to Ph. Eur. criteria (section 5.11.),[1],slightly hygroscopic
same,Water uptake levels,[1]; [4],≤ 1 % m/m
same,Water uptake levels,[1]; [5],≤ 2 % m/m
"C=CC(=O)N1CCC(F)(CNc2ncnc(N)c2-c2ccc(Oc3ccccc3)cc2)CC1 [Mesylate-NF1, 1-(4-{[6-Amino-5-(4-phenoxy-phenyl)-pyrimidin-4-ylamino]-methyl}-4-fluoro-piperidin-1-yl)-propenone]",Hygroscopicity classification acc. to Ph. Eur. criteria (section 5.11.),[1],slightly hygroscopic
same,Water uptake levels,[1]; [4],≤ 1 % m/m
same,Water uptake levels,[1]; [5],≤ 5 % m/m
"C=CC(=O)N1CCC(F)(CNc2ncnc(N)c2-c2ccc(Oc3ccccc3)cc2)CC1 [Free base form A1, 1-(4-{[6-Amino-5-(4-phenoxy-phenyl)-pyrimidin-4-ylamino]-methyl}-4-fluoro-piperidin-1-yl)-propenone]",Dissolution levels in FaSSIF pH 6.5,[2]; 30 min,16 μg/mL
same,Dissolution levels in FaSSIF pH 6.5,[2]; 60 min,17 μg/mL
same,Dissolution levels in FaSSIF pH 6.5,[2]; 120 min (2 h),17 μg/mL
same,Dissolution levels in FaSSIF pH 6.5,"[2]; 120 min (2 h), listed as form A1",approx. 17 μg/mL
same,solubility thermodynamic at 24 h,"[3]; FaSSIF (Fasted-State Simulated Intestinal Fluid), pH 6.5, fassif, Fasted-State Simulated Intestinal Fluid pH 6.5, read-out: Thermodynamic solubility FaSSIF pH 6.5",~17 µg/mL
same,solubility thermodynamic at 24 h,"[3]; USP Phosphate buffer, pH 7.4, aqueous buffer, USP Phosphate buffer pH 7.4, read-out: Thermodynamic solubility PBS buffer 7.4",~1 µg/mL
same,Hygroscopicity classification acc. to Ph. Eur. criteria (section 5.11.),[1],slightly hygroscopic
same,Water uptake levels,[1]; [4],≤ 1 % m/m
same,Water uptake levels,[1]; [5],≤ 2 % m/m
"C=CC(=O)N1CCC(F)(CNc2ncnc(N)c2-c2ccc(Oc3ccccc3)cc2)CC1 [Oxalate-NF1, 1-(4-{[6-Amino-5-(4-phenoxy-phenyl)-pyrimidin-4-ylamino]-methyl}-4-fluoro-piperidin-1-yl)-propenone]",Dissolution levels in FaSSIF pH 6.5,[2]; 30 min,22 μg/mL
same,Dissolution levels in FaSSIF pH 6.5,[2]; 60 min,39 μg/mL
same,"Dissolution level (2 h) in FaSSIF, factor higher than A1",[2]; listed as Oxalate salt form NF1,~4
same,Hygroscopicity classification acc. to Ph. Eur. criteria (section 5.11.),[1],slightly hygroscopic
same,Water uptake levels,[1]; [4],≤ 1 % m/m
same,Water uptake levels,[1]; [5],≤ 5 % m/m
"C=CC(=O)N1CCC(F)(CNc2ncnc(N)c2-c2ccc(Oc3ccccc3)cc2)CC1 [Fumarate-NF1, 1-(4-{[6-Amino-5-(4-phenoxy-phenyl)-pyrimidin-4-ylamino]-methyl}-4-fluoro-piperidin-1-yl)-propenone]",Dissolution levels in FaSSIF pH 6.5,[2]; 30 min,14 μg/mL
same,Dissolution levels in FaSSIF pH 6.5,[2]; 60 min,18 μg/mL
same,"Dissolution level (2 h) in FaSSIF, factor higher than A1",[2]; listed as Fumarate salt form NF1,~2
same,Hygroscopicity classification acc. to Ph. Eur. criteria (section 5.11.),[1],slightly hygroscopic
same,Water uptake levels,[1]; [4],≤ 1 % m/m
same,Water uptake levels,[1]; [5],≥ 5 % m/m
"C=CC(=O)N1CCC(F)(CNc2ncnc(N)c2-c2ccc(Oc3ccccc3)cc2)CC1 [HBr-NF2, 1-(4-{[6-Amino-5-(4-phenoxy-phenyl)-pyrimidin-4-ylamino]-methyl}-4-fluoro-piperidin-1-yl)-propenone]",Hygroscopicity classification acc. to Ph. Eur. criteria (section 5.11.),[1],slightly hygroscopic
same,Water uptake levels,[1]; [4],≤ 1 % m/m
same,Water uptake levels,[1]; [5],≥ 5 % m/m
"C=CC(=O)N1CCC(F)(CNc2ncnc(N)c2-c2ccc(Oc3ccccc3)cc2)CC1 [HCl-NF1, 1-(4-{[6-Amino-5-(4-phenoxy-phenyl)-pyrimidin-4-ylamino]-methyl}-4-fluoro-piperidin-1-yl)-propenone]",Dissolution levels in FaSSIF pH 6.5,[2]; 30 min,55 μg/mL
same,Dissolution levels in FaSSIF pH 6.5,[2]; 60 min,43 μg/mL
same,"Dissolution level (2 h) in FaSSIF, factor higher than A1",[2],~4
same,Hygroscopicity classification acc. to Ph. Eur. criteria (section 5.11.),[1],slightly hygroscopic
same,Water uptake levels,[1]; [4],≤ 1 % m/m
same,Water uptake levels,[1]; [5],≤ 5 % m/m
